From patent US20100166781A1, “HAT ACETYLATION PROMOTERS AND USES OF COMPOSITIONS THEREOF IN PROMOTING IMMUNOGENICITY” (Tapimmune, Inc., priority 2008, published 2010)
“Also recorded” adds a separate entry of the source. Where two headings read alike, the source gives them in different places.

Tests used:
TAP-1 promoter [1] = assay: Chromatin immunoprecipitation with anti-RNA pol II antibody, real-time PCR of TAP-1 promoter; format: cell-based, murine
Protocol: (§1) As the low level of histone H3 acetylation in TAP-1 promoter seems to contribute to TAP-1 deficiency in carcinomas, a further investigation was conducted to determine whether treatment of TAP-deficient carcinoma cells with TSA would increase the TAP-1 expression in the cells. […] Relative RNA pol II or acetyl-histone H3 levels were determined as the ratio of copy numbers of the eluted TAP-1 promoter and copy numbers of the corresponding inputs. The smallest ratio was arbitrarily determined as 1. Columns, average of three to six experiments; bars, SEM. *P<0.05 compared with cells that expressed higher MHC class I in the same assay.

TAP-1 promoter [2] = assay: Chromatin immunoprecipitation with anti-acetyl-histone H3 antibody, real-time PCR of TAP-1 promoter; format: cell-based, murine
Protocol: as §1

TAP-1 promoter [3] = assay: Luciferase assay in cells stably transfected with pTAP-1-luc construct; format: cell-based, murine
Description: A plasmid containing an EGFP gene driven by the TAP-1 promoter (pTAP-1-EGFP) was constructed as described previously. A similar construct containing a luciferase gene driven by the TAP-1 promoter (pTAP-1-luc) was created by inserting the TAP-1 promoter between the Sac I and BgI II sites of pGL4.14[luc2/Hygro] vector (Promega, Madison, Wis.). Several truncated TAP-1 promoter constructs were also made by cloning its 5′-end truncations into pGL4.14[luc2/Hygro] vector. Primers were used for PCR amplifications of the full TAP-1 promoter and its truncations.
TC-1, D11, A9, PA and LMD cells were transfected with the TAP-1 promoter constructs or the promoterless pGL4.14[luc2/Hygro] vector using ExGen 500 in vitro Transfection Reagent (Fermentas). Transient transfectants were analyzed between 12-72 hours after transfection. To obtain stable transfectants, the transfected cells were selected for 3 weeks in the presence of the following concentrations of Hygromycin B (Sigma): 550 ng/ml for TC-1 cells, 250 ng/ml for D11, A9 and LMD cells, 200 ng/ml for PA cells.
Relative luciferase activity (RLA) in transient transfectants was assessed by dual luciferase assay (Promega) within 12-72 hours after transfection. RLA in stable transfectants (3 weeks-1 month post-transfection) was assessed by Bright-Glo luciferase assay (Promega), and determined by subtracting the results with corresponding values obtained from transfection with promoterless pGL4.14[luc2/Hygro] vector alone and by further normalizing the values with copy number of plasmids integrated into the genome of each stable transfectant.

TAP-1 = assay: RT-PCR and Western blot analysis of TAP-1 expression; format: cell-based, murine
Protocol: Fifty micrograms of proteins per sample were separated through 6% (p300, CBP and TAP-1) or 15% (β-actin and acetyl-histone H3) SDS-PAGE. Proteins were transferred to a nitrocellulose membrane (Bio-rad, Hercules, Calif.). Blots were blocked with 5% skim milk in PBS and incubated with appropriate Ab dilutions. […] Secondary Ab used was HRP-conjugated goat anti-rabbit secondary Ab (Jackson Immunoresearch Lab., West Grove, Pa.). For the loading controls, anti β-actin mouse monoclonal Ab (Sigma) was used, followed by HRP-conjugated goat anti-mouse secondary Ab (Pierce, Rockford, Ill.). Blots were developed using Lumi-light reagents (Pierce).
Western blot analysis of TAP-1 expression was performed using lysate of cells that were pre-treated with 20 to 200 ng/ml TSA for 24 to 48 hours, and representative data from cells treated with 100 ng/ml TSA for 24 hours (PA and LMD) or 48 hours (TC-1, D11 and A9) are shown in FIG. 4A.

surface H-2K^b = surface H-2K^b (Mus musculus, UniProt P01901); assay: Flow cytometric analysis of surface H-2K^b expression; format: cell-based, murine
Protocol: Cells untreated (shaded areas) or treated with 100 ng/ml TSA (thick lines), or 50 ng/ml IFN-γ (thin lines), were stained with PE-conjugated anti-H-2K^bmAb. Data are representatives of three experiments.

[4] = test system: VSV-infected cancer cells; format: cell-based, murine; details: for enhancement of CTL killing / enhancement of levels of killing: treatment 24 hours prior to VSV infection; for enhancement of CTL killing: effector:target 22:1
A9 tumor = A9 tumor growth in C57BL/6 syngeneic mice; format: in vivo, C57BL/6 mice; details: A9 cells s.c., 500 μg/kg daily i.p. for 20 days from day 7, versus DMSO control
Protocol: A total of 3×10^5 cells of TC-1 or A9 in PBS were injected subcutaneously into seven-week-old female C57BL/6 syngeneic mice (Charles River, St. Constant, QC). Mice were assigned to 3 groups of 4 animals. TSA was dissolved in DMSO to a concentration of 0.2 mg/ml. Daily treatment with 50 ul TSA (500 μg/kg) or DMSO (vehicle control) was administered via intraperitoneal injection for 20 days, starting on day 7 after injection with tumor cells. Mice were weighed weekly, and their behavior and food intake were monitored throughout the course of the experiment. Tumors were measured 3 times a week and tumor volume was calculated using the formula: tumor volume=length×width×height×π/6. The study period was determined by the size of the tumors in the A9 group treated with DMSO vehicle control.
TC-1 and A9 cells were cultured in vitro and were passaged less than 8 times before 3×10^5 of each group of the cells were injected subcutaneously into 7 week-old female C57BL/6 syngeneic mice. Daily treatment with TSA or DMSO vehicle control began on day 7 after cells injection, as the animals started to grow palpable A9 tumors. […] No tumor was detected beyond 1 month after injection with less than 3×10^5 TC-1 tumor cells (data not shown).

A9 tumour = assay: A9 tumor growth in immunodeficient Rag1 mice; format: in vivo; details: TSA treatment
Protocol: A9 tumor growth was suppressed in C57B1/6 mice treated daily for 20 days with 500 μg/kg of TSA (black bars) as compared to those treated with DMSO vehicle control (white bars). However, TSA treatment had no affect on A9 tumour growth in Ragl^“7” mice.

LMP-2 = assay: RT-PCR analysis of APM components: LMP-2; details: HPV-positive carcinoma cell lines, particularly TAP-deficient cells
TAP-2 = assay: RT-PCR analysis of APM components: TAP-2; details: HPV-positive carcinoma cell lines, particularly TAP-deficient cells
tapasin = assay: RT-PCR analysis of APM components: tapasin; details: HPV-positive carcinoma cell lines, particularly TAP-deficient cells
TAP-1 promoter [5] = assay: Chromatin immunoprecipitation with anti-CBP antibody, real-time PCR of 5'-end of TAP-1 promoter; details: LMD, D11 and A9 cells, IFN-γ treatment

Chain of surface H-2K^b (P01901 whole entry, looked up): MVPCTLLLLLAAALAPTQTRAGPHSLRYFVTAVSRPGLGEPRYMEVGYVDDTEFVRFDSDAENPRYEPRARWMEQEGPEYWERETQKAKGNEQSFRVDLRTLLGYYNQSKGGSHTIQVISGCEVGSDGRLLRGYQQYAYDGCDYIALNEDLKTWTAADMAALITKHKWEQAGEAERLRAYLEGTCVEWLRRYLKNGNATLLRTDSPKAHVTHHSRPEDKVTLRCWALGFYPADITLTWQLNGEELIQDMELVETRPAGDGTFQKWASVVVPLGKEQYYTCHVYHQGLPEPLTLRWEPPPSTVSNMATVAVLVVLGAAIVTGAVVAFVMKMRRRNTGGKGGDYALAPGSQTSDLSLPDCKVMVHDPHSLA

CC(/C=C/C(=O)NO)=C\[C@@H](C)C(=O)c1ccc(N(C)C)cc1 [TSA, trichostatin A]
level of RNA pol II binding to TAP-1 promoter (TAP-1 promoter [1]; TSA treatment, TAP-deficient cells of HPV-positive and prostate carcinoma models): to similar levels as in TAP-expressing cells
recruitment of RNA pol II complex to the TAP-1 promoter (TAP-1 promoter [1]; TSA treatment, most cell lines, particularly TAP-deficient cells): enhanced
levels of acetyl-histone H3 in TAP-1 promoter (TAP-1 promoter [2]; TSA treatment, all cell lines tested): did not significantly alter
TAP-1 promoter activity (TAP-1 promoter [3]; HPV-positive carcinoma model, TAP-deficient cells): to similar levels as in TAP-expressing cells
TAP-1 promoter activity (luc expression) (TAP-1 promoter [3]; TAP-deficient cells stably transfected with pTAP-1-luc): increased significantly
TAP-1 promoter activity (TAP-1 promoter [3]; prostate carcinoma model, LMD cells): statistically significant improvement
Optimal dose for optimal induction of TAP-1 expression (TAP-1; 24 hours in LMD, CMT.64 and B16, 48 hours in D11 and A9): 100 ng/mL
expression of TAP-1 (TAP-1; RT-PCR and Western blot, 100 ng/ml for 24 h (PA, LMD) or 48 h (TC-1, D11, A9)): up-regulated
TAP-1 expression upon increasing the dose (TAP-1; Western blot, TAP-deficient cells, 20 to 200 ng/ml for 24 to 48 hours): increasing levels of TAP-1 expression
increase of surface expression H-2K^b (surface H-2K^b; MHC class I-deficient cells, 100 ng/ml TSA): approximately 10 fold
surface H-2K^b levels (surface H-2K^b; PA and TC-1 cells (originally high surface H-2K)): remained the same
enhancement of CTL killing ([4]; VSV-infected A9 cells): ~7 fold
enhancement of levels of killing ([4]; VSV-infected B16 cells): 20 fold
enhancement of levels of killing ([4]; VSV-infected CMT.64 cells): 5 fold
enhancement of CTL killing ([4]; VSV-infected D11 cells): ~6 fold
enhancement of CTL killing ([4]; VSV-infected TC-1 cells): approximately 1.4 fold
tumor growth (A9 tumor): suppressed; also recorded: slower
tumour growth (A9 tumour): no affect
expression of LMP-2 (LMP-2): up-regulation
expression of TAP-2 (TAP-2): up-regulation
expression of tapasin (tapasin): up-regulation

B1: IFN-γ: potent inducer of TAP-1 and surface MHC class I expression in cancer cells, used as positive control (protein, UniProt P01579 24-161, looked up)
Interferon gamma: QDPYVKEAENLKKYFNAGHSDVADNGTLFLGILKNWKEESDRKIMQSQIVSFYFKLFKNFKDDQSIQKSVETIKEDMNVKFFNSNKKKRDDFEKLTNYSVTDLNVQRKAIHELIQVMAELSPAAKTGKRKRSQMLFRG
level of RNA pol II in TAP-1 promoter (TAP-1 promoter [1]; IFN-γ treatment): increased
level of acetyl-histone H3 in TAP-1 promoter (TAP-1 promoter [2]; IFN-γ treatment): increased
histone H3 acetylation in TAP-1 promoter (TAP-1 promoter [2]; TAP-deficient cells, IFN-γ compared with TSA): to much higher levels than TSA did
surface H-2K^b expression (surface H-2K^b; all cell lines, 50 ng/ml IFN-γ): increased
level of killing by CTL ([4]; all VSV-infected cell lines, IFN-γ treatment): maximal induction
expression of LMP-2 (LMP-2): inducible
expression of TAP-2 (TAP-2): inducible
CBP binding to TAP-1 promoter (TAP-1 promoter [5]): increase
